Assays:
Assay type in all cases: physicochemical
[1] = Dynamic moisture sorption (DMS) assessment; details: for solid form (PXRD) after moisture sorption-desorption: PXRD before and after the DMS experiment; for hygroscopicity: from DMS profile, Form 1 per European Pharmacopoeia Technical Guide classification; for hysteresis between sorption and desorption: two cycles of water sorption and desorption
Procedure: In one embodiment, the crystalline neutral monohydrate Form 1 is characterized by the DMS profile in FIG. 4. Samples of Form 1 were subjected to isothermal moisture sorption analysis at 25° C. […] The step-like profile at 40-60% RH may indicate capillary condensation. At 90% RH, the total moisture uptake was ˜0.5%.
In one embodiment, the crystalline neutral Form 2 is characterized by the DMS profile in FIG. 11. Samples of Form 2 were subjected to isothermal moisture sorption analysis at 25° C. With increasing relative humidity, the amount of water adsorbed by the solid increased gradually up to 75% RH and steeply between 75%-90% RH […].
In one embodiment, the crystalline neutral anhydrous Form 3 is characterized by the DMS profile in FIG. 29. The DMS thermogram of Form 3 is similar to that of Form 2 (FIG. 11). […] The sample, however, loses the adsorbed water during desorption segment and returns to an anhydrous state. Overlay of the PXRD patterns of the sample before and after it was subjected the moisture sorption-desorption experiment is shown in FIG. 30. […] Form 3, like Form 2, is hygroscopic.
In one embodiment, the crystalline neutral anhydrous Form 4 is characterized by the DMS profile in FIG. 37. […] Form-4 is non-hygroscopic. […] Form 4, which is obtained from the monohydrate Form 1, is non-hygroscopic, whereas Form 3, which is obtained from anhydrous Form 2, is hygroscopic. […] Overlay of the PXRD patterns of the sample before and after it was subjected the moisture sorption-desorption experiment is shown in FIG. 30.
Moisture sorption and desorption data on the crystalline compounds were collected on a VTI SGA-100 Vapor Sorption Analyzer. Sorption and desorption data were collected over a range of 5% to 90% relative humidity (RH) at 5% RH intervals. Equilibrium criteria used for analysis were less than 0.01% weight change in 5 minutes, with a maximum equilibration time of three hours if the weight criterion was not met. Samples were subjected to initial drying or desorption steps to 5% RH followed by the sorption-desorption cycle. Data were collected at a time interval of two minutes or 0.01% change in weight.

[2] = Heat induced decomposition by DSC and TGA; details: 10° C. per minute, nitrogen purge
Procedure: The crystalline compounds were subjected to temperature scan using a TA Instruments Q100 differential scanning calorimeter equipped with a refrigerated cooling system. Samples were loaded into aluminum pans with crimped lids. In most cases, the samples were heated to 250° C. at a rate of 10° C. per minute under a purge of nitrogen gas. The data acquisition was controlled by Thermal Advantage software Release 5.1.2 and the data were analyzed with Universal Analysis 2000 software (version 4.7A).
The crystalline compounds were subjected to temperature scan using a TA Instruments Q500 thermal gravimetric analyzer. Samples were loaded into platinum pans and heated to 250° C. at a rate of 10° C. per minute under a purge of nitrogen gas. The data acquisition was controlled by Thermal Advantage software Release 5.1.2 and the data were analyzed with Universal Analysis 2000 software (version 4.7A).

[3] = Exposure of Form 2 to 84% relative humidity, analysis by PXRD; details: 84% RH for seven days
Description: In one experiment, a sample of Form 2 was exposed to 84% RH for seven days. […] This experiment established that Form 2 is metastable to the monohydrate Form 1 in high relative humidities (>75% RH). Accordingly, in another embodiment, the crystalline neutral monohydrate Form 1 can be prepared by (a′) exposing the crystalline neutral Form 2 to high humidity; and in one embodiment exposing Form 2 to about >75% relative humidity, typically for about 5-7 days.

[4] = Slurry of Form 2 in water, analysis by PXRD; details: slurried in water (e.g., deionized water) for five days
Description: This experiment established that Form 2 is metastable to the monohydrate Form 1 in solutions containing water. Thus, in yet another embodiment, the crystalline neutral monohydrate Form 1 can be prepared by (a″) reslurrying the crystalline neutral Form 2 in water or an aqueous solution; (b″) heating then cooling the resulting slurry; (c″) optionally stirring or sonicating to complete dissolution; and allowing solids to form and isolating the solids to yield the crystalline neutral monohydrate Form 1. […] Step (a″) is typically conducted by first treating Form 2 with methanol, and subsequently adding water as an anti-solvent to form a slurry. Step (b″) generally involves heating the slurry to a temperature within the range of about 55-75° C., and in one embodiment to about 60° C. The cooling in step (b″) is generally to about room temperature.

[5] = Retention of lattice water under ambient conditions and under high vacuum

Structure (SMILES)	water taken up between 75% RH and 90% RH ([1]; DMS, between 75% RH and 90% RH)	solid form (PXRD) after moisture sorption-desorption [1]	hygroscopicity [1]	heat induced decomposition temperature [2] [°C]	total quantity of water taken up in the DMS experiment ([1]; DMS, 25° C.)	hysteresis between sorption and desorption [1]	solid form after exposure to high humidity [3]	solid form after slurrying in water [4]	water taken up when exposed up to 90% RH ([1]; DMS, up to 90% RH)	loss of lattice water ([5]; exposed to ambient conditions for more than a month)	loss of lattice water ([5]; placed in high vacuum for more than 24 hours)	total moisture uptake ([1]; isothermal moisture sorption at 25° C., at 90% RH) [%]
CC(C)OC(=O)[C@H](O)CN(Cc1ccc(-c2cccc(Cl)c2)cc1)NC(=O)c1cc(O)no1 [Form 3, (R)-3-[N-(3′-chlorobiphenyl-4-ylmethyl)-N′-(3-hydroxyisoxazole-5-carbonyl)hydrazino]-2-hydroxypropionic acid isopropyl ester]	about 3.5%	returns to the same solid form after moisture sorption and desorption	hygroscopic	–	–	–	–	–	–	–	–	–
CC(C)OC(=O)[C@H](O)CN(Cc1ccc(-c2cccc(Cl)c2)cc1)NC(=O)c1cc(O)no1 [Form 2, (R)-3-[N-(3′-chlorobiphenyl-4-ylmethyl)-N′-(3-hydroxyisoxazole-5-carbonyl)hydrazino]-2-hydroxypropionic acid isopropyl ester]	–	showed a PXRD pattern that matched with the starting material	hygroscopic	> 175	3.5-3.6%	showed distinct hysteresis	converts to Form 1 at high humidities	PXRD pattern consistent with Form 1	–	–	–	–
CC(C)OC(=O)[C@H](O)CN(Cc1ccc(-c2cccc(Cl)c2)cc1)NC(=O)c1cc(O)no1 [Form 4, (R)-3-[N-(3′-chlorobiphenyl-4-ylmethyl)-N′-(3-hydroxyisoxazole-5-carbonyl)hydrazino]-2-hydroxypropionic acid isopropyl ester]	–	retained its solid-state structure	non-hygroscopic	–	–	no hysteresis	–	–	less than 0.1 % by weight	–	–	–
CC(C)OC(=O)[C@H](O)CN(Cc1ccc(-c2cccc(Cl)c2)cc1)NC(=O)c1cc(O)no1 [Form 1, (R)-3-[N-(3′-chlorobiphenyl-4-ylmethyl)-N′-(3-hydroxyisoxazole-5-carbonyl)hydrazino]-2-hydroxypropionic acid isopropyl ester]	–	did not show any change in their PXRD pattern	slightly hygroscopic	> 175	–	did not show hysteresis	–	–	–	did not lose lattice water	did not lose lattice water	~0.5
